Data taken from ChEMBL document CHEMBL1157495 (Bioorg Med Chem Lett, 2008).

Key:
Plasmodium falciparum = experiment: Antiplasmodial activity against chloroquine-resistant Plasmodium falciparum W2; type: functional, organism-based
Plasmodium berghei [1] = experiment: (§1) Antimalarial activity after 10 days against Plasmodium berghei ANKA infected Anopheles stephensi at 10 uM/kg; type: functional
Plasmodium berghei [2] = experiment: as §1; type: functional; remark: listed apart in the source
Plasmodium berghei [3] = experiment: (§2) Antimalarial activity after 10 days against Plasmodium berghei ANKA infected Anopheles stephensi at 50 uM/kg; type: functional
Plasmodium berghei [4] = experiment: as §2; type: functional; remark: listed apart in the source

**Q.** For `COc1cc(NC(C)CCCN2C(=O)CN(C(=O)[C@@H](N)CCSC)C2(C)C)c2ncccc2c1` (stereo partly drawn), which IC50 (Plasmodium falciparum) is on record?
**A.** 12 µM

**Q.** For `COc1cc(NC(C)CCCN2C(=O)[C@H](CCSC)N(C(=O)CN)C2(C)C)c2ncccc2c1` (stereo partly drawn), which IC50 (Plasmodium falciparum) is on record?
**A.** 3.3 µM

**Q.** `COc1cc(NC(C)CCCN2C(=O)CN(C(=O)[C@@H](N)C(C)C)C2(C)C)c2ncccc2c1` (stereo partly drawn) was tested. Which IC50 (Plasmodium falciparum) did it give?
**A.** 7.9 µM

**Q.** How did the IC50 (Plasmodium falciparum) turn out when `COc1cc(NC(C)CCCN2C(=O)[C@H](C)NC2(C)C)c2ncccc2c1` (stereo partly drawn) was run?
**A.** > 50 µM

**Q.** For `COc1cc(NC(C)CCCN2C(=O)CN(C(=O)CN)C2(C)C)c2ncccc2c1` (stereo not drawn), which Activity (Plasmodium berghei [1]) is on record?
**A.** 42%

**Q.** What about the Activity (Plasmodium berghei [2]) of the same compound?
**A.** 1.08

**Q.** And the Activity (Plasmodium berghei [3])?
**A.** 0.79

**Q.** For `COc1cc(NC(C)CCCN2C(=O)CN(C(=O)[C@@H](N)CC(C)C)C2(C)C)c2ncccc2c1` (stereo partly drawn), which IC50 (Plasmodium falciparum) is on record?
**A.** 6.3 µM

**Q.** Which results are given for `COc1cc(NC(C)CCCN)c2ncccc2c1` (stereo not drawn) [PRIMAQUINE]?
**A.** Activity (Plasmodium berghei [1]): 41.7%; Activity (Plasmodium berghei [2]): 2; Activity (Plasmodium berghei [4]): 42.9%; Activity (Plasmodium berghei [3]): 0.95

**Q.** For `COc1cc(NC(C)CCCN2C(=O)[C@H](C)N(C(=O)CN)C2(C)C)c2ncccc2c1` (stereo partly drawn), which IC50 (Plasmodium falciparum) is on record?
**A.** 5.5 µM

**Q.** For `COc1cc(NC(C)CCCN2C(=O)CN(C(=O)[C@H](C)N)C2(C)C)c2ncccc2c1` (stereo partly drawn), which IC50 (Plasmodium falciparum) is on record?
**A.** 8 µM

**Q.** What about the Activity (Plasmodium berghei [1]) of the same compound?
**A.** 67.9%

**Q.** What about the Activity (Plasmodium berghei [2]) of the same compound?
**A.** 9.71

**Q.** What about the Activity (Plasmodium berghei [4]) of the same compound?
**A.** 40.1%

**Q.** And the Activity (Plasmodium berghei [3])?
**A.** 1.34
